Measured values as given in PMC10610505, “Synthesis and Biological Evaluation of Some New 3-Aryl-2-thioxo-2,3-dihydroquinazolin-4(1H)-ones and 3-Aryl-2-(benzylthio)quinazolin-4(3H)-ones as Antioxidants; COX-2, LDHA, α-Glucosidase and α-Amylase Inhibitors; and Anti-Colon Carcinoma and Apoptosis-Inducing Agents” (Pharmaceuticals, 2023).
Like-named read-outs stand apart in the source and are kept apart here.

Columns and labels:
[1] = DPPH radical scavenging assay; type: biochemical; conditions: for Mean IC50 for scavenging initial DPPH radicals: mean ± SD of three replicates; for IC50: mean ± SD, converted from mg/mL, read-out: Mean IC50 for scavenging initial DPPH radicals (converted)
Text: In principle, the antioxidant power of a compound in this assay is correlated to its tendency to reduce the stable, purple-colored DPPH radical through a hydrogen atom transfer (HAT) mechanism and/or a single electron transfer mechanism, thereby converting it to the yellow-colored 2,2-diphenyl-1-picrylhydrazine, whereby this reduction is accompanied by a depletion in the amount of the initial DPPH radicals and a change in the absorbance of the test solution accordingly, which can be detected relative to the blank solution at λ = 517 nm.
The antioxidant potencies of all synthesized compounds were investigated using a 1,1 diphenyl-2-picrylhydrazyl (DPPH) radical scavenging assay according to the protocol described by Bersuder et al.. In brief, a 0.5 mL volume of DPPH ethanolic solution was mixed with an equal volume of each sample concentration (i.e., the test compound or butylated hydroxytoluene, BHT, which was used as the reference antioxidant in the positive control experiment), shaken strongly, and incubated at room temperature for 1 h in darkness. The absorbance of the residual DPPH radicals was measured at λ = 519 nm and compared to the negative control (without the test compound or reference antioxidant). The DPPH radical scavenging power was calculated using the following formula: scavenging efficiency (%) = (1 − Acompound/AControl) × 100, where Acompound and Acontrol are the absorbance of the tested compound and the negative control, respectively. […] Additionally, the ± SD values were calculated from three independent triplicate measurements.

COX-2 = target: T1, COX-2 (Homo sapiens, UniProt P35354); assay: COX-2 inhibitory screening assay (Cayman kit); type: biochemical; conditions: for Increase in COX-2 inhibitory efficiency by duplicating the concentration: % inhibition at 0.200 mg/mL divided by % inhibition at 0.100 mg/mL; for inhibition at 100 µg/mL: at 0.100 mg/mL; for inhibition at 100 µg/mL / inhibition at 200 µg/mL: read-out: COX-2 mean % inhibition ± SD; for inhibition at 200 µg/mL: at 0.200 mg/mL
T1 construct: purchased Cayman Chemical Company 701080
T1 sequence (P35354 18-604): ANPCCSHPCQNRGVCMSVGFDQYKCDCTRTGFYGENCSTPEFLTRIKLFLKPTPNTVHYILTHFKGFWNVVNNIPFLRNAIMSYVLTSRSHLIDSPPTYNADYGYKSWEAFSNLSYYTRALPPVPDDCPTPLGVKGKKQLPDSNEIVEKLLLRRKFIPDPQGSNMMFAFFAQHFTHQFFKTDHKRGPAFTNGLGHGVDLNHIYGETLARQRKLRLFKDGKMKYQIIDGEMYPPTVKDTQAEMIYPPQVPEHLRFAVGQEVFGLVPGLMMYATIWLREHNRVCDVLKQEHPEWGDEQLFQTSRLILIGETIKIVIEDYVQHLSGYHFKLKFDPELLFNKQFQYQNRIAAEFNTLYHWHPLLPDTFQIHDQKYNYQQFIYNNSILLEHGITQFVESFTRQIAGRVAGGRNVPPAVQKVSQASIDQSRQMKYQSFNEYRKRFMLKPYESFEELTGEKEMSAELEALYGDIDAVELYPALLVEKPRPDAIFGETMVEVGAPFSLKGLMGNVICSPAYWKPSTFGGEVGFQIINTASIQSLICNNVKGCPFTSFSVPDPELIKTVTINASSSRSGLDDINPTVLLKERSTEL
Method: Each compound of the two series, 3a–h and 5a–h, was resuspended in 100% DMSO at a final concentration of 10 mg/mL. […] Briefly, 10 µL of the tested compound was added to a mixture of the reaction buffer solution (160 µL of 0.1 M Tris-HCl, pH 8.0, in the presence of 2 mM phenol and 5 mM EDTA), COX-2 (10 µL) and heme (10 µL). After a 10 min incubation at 37 °C, the reaction was started by adding arachidonic acid (10 µL), rapidly mixed and kept at 37 °C for 2 min. PGF2α generated via PGH2 reduction with stannous chloride (30 µL) was incubated at room temperature for 5 min. The PGF2α amount was then determined via an enzyme immunoassay. Prior to incubation with the COX-2 reaction (at room temperature 18 h), the 96-well plate was previously coated with a mouse anti-rabbit monoclonal antibody. Unbound reagents were removed by washing the plate followed by adding Ellman’s reagent to the well. The reaction product displaying a distinct yellow color was measured at 410 nm using a UV microplate reader. The % inhibition was calculated by comparing the PGF2α produced in the compound-treated samples with a control sample, using the following equation: % inhibition is equal to [([PGF2α]control − [PGF2α]sample) /[PGF2α ]control ] × 100. […] The COX-2 inhibitory efficiency was expressed as an inhibition percentage, which was determined via a comparison with the negative control experiments.

[2] = target: purified recombinant human LDHA protein (Homo sapiens, UniProt P00338); assay: Lactate dehydrogenase A (LDHA) inhibitory assay; type: biochemical; conditions: for Fold change of LDHA inhibition as compared to 0.1 mg/mL: % inhibition at 0.200 mg/mL divided by % inhibition at 0.100 mg/mL; for inhibition at 100 µg/mL: at 0.1 mg/mL; for inhibition at 100 µg/mL / inhibition at 200 µg/mL: read-out: LDHA mean % inhibition ± SD; for inhibition at 200 µg/mL: at 0.2 mg/mL
Method: The LDHA inhibitory effectiveness was investigated by measuring the amounts of consumed NADH [73]. […] The fluorescence of NADH, which has an excitation wavelength of 340 nm and an emission wavelength of 460 nm, was detected using a spectrofluorometer. […] The LDHA inhibitory efficiency was expressed as an inhibition percentage, which was determined via a comparison with the negative control experiments.

[3] = test system: LoVo human colon carcinoma cells; assay: Viability assay (LDH release), LoVo; type: cell-based; conditions: for viability at 200 µg/mL: Homo sapiens, LoVo, 48 h, read-out: Mean % of viable cells ± SD, LoVo
Method: (§1) The anticancer activities of all the synthesized compounds were assessed against two human colon carcinoma cell lines, namely LoVo and HCT-116 (Table 6), via the determination of the mean percents of the viable cancerous cells remaining after being incubated with 200 µg/mL of each test compound for 48 h using LDH assay.
(§2) The samples were diluted in Dulbecco’s Modified Eagle’s Medium, consisting of 10% fetal bovine serum (FBS), added to cells grown and cultured for 24 h in a 5% CO2-humidified incubator at 37 °C. Thereafter, the activity of lactate dehydrogenase released from damaged cells was determined in the collected supernatant aliquots using an ELISA end-point assay (Benchmark Plus, Bio-Rad, CA, USA); 0.1% Triton X-100 in the assay medium and the assay medium only were used as the positive and negative controls, respectively. Cell viability was expressed as a relative percentage of the OD values (at 550 nm) for compound-treated cells (final concentration of 200 µg /mL) and the negative control, which was shown as the mean % ± SD (n = 3). The results of the viability assays for the potential cytotoxic candidates were compared with the % of viable human umbilical vein endothelial cells (HUVEC) at the same concentration. These cells were grown in Dulbecco’s Modified Eagle’s Medium (PAN-Biotech; Barcelona, Spain) containing 10% FBS (Sigma Aldrich; St. Quentin-Fallavier, France), 2 mM Glutamine (Sigma Aldrich), 100 units/mL penicillin and […] streptomycin (Life Technologies; Paisley, UK).

[4] = test system: HCT-116 human colon carcinoma cells; assay: Viability assay (LDH release), HCT-116; type: cell-based; conditions: for viability at 200 µg/mL: Homo sapiens, read-out: Mean % of viable cells ± SD, HCT-116
Method: as §1, §2

α-amylase = assay: In vitro α-amylase (AA) inhibition assay; conditions: mean ± SD of three replicates; for IC50: read-out: Mean IC50 α-Amylase (AA)
Method: Then, 180 µL of Labtest (the amylase substrate) was added and the samples were incubated for 8 min, followed by measuring the first reaction at 620 nm to obtain (X1). Afterwards, the reaction mixture was incubated for an additional 5 min at 37 °C; then, the second reaction was measured to obtain the final reading (X2). […] The results were expressed as IC50 µg/mL (as well as µM) and were determined from the standard curves.

COc1cc2nc(SCc3cccc([N+](=O)[O-])c3)n(-c3cccc(C(F)(F)F)c3)c(=O)c2cc1OC [Compound 5c, 2-(3-Nitrobenzylsulfanyl)-6,7-dimethoxy-3(3-trifluoromethyl-phenyl)-3H-quinazolin-4-one]
Mean IC50 for scavenging initial DPPH radicals [1]: 186 ± 6 µg/mL
IC50 [1]: 359 µM
Increase in COX-2 inhibitory efficiency by duplicating the concentration (COX-2): 1.41 fold
inhibition at 100 µg/mL (COX-2): 18.6 ± 3.46%
inhibition at 200 µg/mL (COX-2): 26.2 ± 4.03%
Fold change of LDHA inhibition as compared to 0.1 mg/mL [2]: 1.67 fold
inhibition at 100 µg/mL [2]: 8.55 ± 1.06%
inhibition at 200 µg/mL [2]: 14.3 ± 1.56%
viability at 200 µg/mL ([3]; 200 µg/mL): 78.3 ± 3.51%
viability at 200 µg/mL ([4]; HCT-116, 200 µg/mL, 48 h): 82.3 ± 2.52%
Mean IC50 α-Amylase (AA) (α-amylase): 197.333 ± 4.509 µg/mL
IC50 (α-amylase): 381 µM

COc1ccc(Br)c(CSc2nc3ccc(Cl)cc3c(=O)n2-c2ccc([N+](=O)[O-])cc2)c1 [Compound 5f, 2-(2-Bromo-5-methoxy-benzylsulfanyl)-6-chloro-3-(4-nitro-phenyl)-3H-quinazolin-4-one]
Mean IC50 for scavenging initial DPPH radicals [1]: 241 ± 13 µg/mL
IC50 [1]: 452 µM
Increase in COX-2 inhibitory efficiency by duplicating the concentration (COX-2): 1.80 fold
inhibition at 100 µg/mL (COX-2): 28.9 ± 2.69%
inhibition at 200 µg/mL (COX-2): 52 ± 2.83%
Fold change of LDHA inhibition as compared to 0.1 mg/mL [2]: 1.60 fold
inhibition at 100 µg/mL [2]: 31.9 ± 2.48%
inhibition at 200 µg/mL [2]: 51 ± 3.61%
viability at 200 µg/mL ([3]; 200 µg/mL): 84.3 ± 3.51%
viability at 200 µg/mL ([4]; HCT-116, 200 µg/mL, 48 h): 76 ± 1.73%
Mean IC50 α-Amylase (AA) (α-amylase): 106.667 ± 5.033 µg/mL
IC50 (α-amylase): 200 µM

COc1cc2[nH]c(=S)n(-c3ccc([N+](=O)[O-])cc3)c(=O)c2cc1OC [Compound 3h, 6,7-Dimethoxy-3-(4-nitro-phenyl)-2-thioxo-2,3-dihydro-1H-quinazolin-4-one]
Mean IC50 for scavenging initial DPPH radicals [1]: 325 ± 7 µg/mL
IC50 [1]: 904 µM
Increase in COX-2 inhibitory efficiency by duplicating the concentration (COX-2): 1.900 fold
inhibition at 100 µg/mL (COX-2): 14.6 ± 0.636%
inhibition at 200 µg/mL (COX-2): 27.6 ± 2.19%
Fold change of LDHA inhibition as compared to 0.1 mg/mL [2]: 1.47 fold
inhibition at 100 µg/mL [2]: 29.9 ± 1.77%
inhibition at 200 µg/mL [2]: 43.9 ± 1.56%
viability at 200 µg/mL [3]: 64 ± 3%
viability at 200 µg/mL ([4]; HCT-116, 48 h): 70.3 ± 3.79%
Mean IC50 α-Amylase (AA) (α-amylase): 122.000 ± 4.583 µg/mL
IC50 (α-amylase): 339 µM

O=c1c2cc(Br)ccc2nc(SCc2cccc([N+](=O)[O-])c2)n1-c1ccc([N+](=O)[O-])cc1 [Compound 5g, 2-(3-Nitro-benzylsulfanyl)-6-bromo-3-(4-nitro-phenyl)-3H-quinazolin-4-one]
Mean IC50 for scavenging initial DPPH radicals [1]: 200 ± 14 µg/mL
IC50 [1]: 390 µM
Increase in COX-2 inhibitory efficiency by duplicating the concentration (COX-2): 1.83 fold
inhibition at 100 µg/mL (COX-2): 14.2 ± 1.77%
inhibition at 200 µg/mL (COX-2): 26 ± 2.83%
Fold change of LDHA inhibition as compared to 0.1 mg/mL [2]: 1.75 fold
inhibition at 100 µg/mL [2]: 15.8 ± 2.05%
inhibition at 200 µg/mL [2]: 27.7 ± 2.55%
viability at 200 µg/mL [3]: 74.7 ± 2.52%
viability at 200 µg/mL ([4]; HCT-116, 48 h): 66.3 ± 3.06%
Mean IC50 α-Amylase (AA) (α-amylase): 339.000 ± 4.000 µg/mL
IC50 (α-amylase): 660 µM

O=c1c2cc(Br)ccc2[nH]c(=S)n1-c1cccc(C(F)(F)F)c1 [Compound 3b, 6-Bromo-2-thioxo-3-(3-trifluoromethyl-phenyl)-2,3-dihydro-1H-quinazolin-4-one]
Increase in COX-2 inhibitory efficiency by duplicating the concentration (COX-2): 1.72 fold
inhibition at 100 µg/mL (COX-2): 6.25 ± 1.77%
inhibition at 200 µg/mL (COX-2): 10.8 ± 2.48%
Fold change of LDHA inhibition as compared to 0.1 mg/mL [2]: 1.45 fold
inhibition at 100 µg/mL [2]: 29.1 ± 2.19%
inhibition at 200 µg/mL [2]: 42.4 ± 1.91%
viability at 200 µg/mL [3]: 62 ± 3.61%
viability at 200 µg/mL ([4]; HCT-116, 48 h): 70.7 ± 2.52%
IC50 (α-amylase): 427 µM

Triton X-100 [reference compound]
Mean % of viable cells, LoVo ([3]; positive control, 0.1%): 0.000%
Mean % of viable cells, HCT-116 ([4]; positive control, 0.1%): 0.000%

Cc1cc(C(C)(C)C)c(O)c(C(C)(C)C)c1 [BHT, butylated hydroxy toluene, reference compound]
Mean IC50 for scavenging initial DPPH radicals [1]: 54 ± 6 µg/mL
IC50 [1]: 245 µM
